Structures can show the parent of a compound that is named as a salt. Where two headings read alike, the source gives them in different places.
Legend:
[1] = tested on: human ovarian cancer OVCAR3 cell xenograft tumor; conditions: doxorubicin hydrochloride 3 mg/kg i.v. qw x 4 w; for tumor growth inhibition (in words): (I-1) 100 mg/kg p.o. qd x 28 d; for RTV on day 29 after administration (mean value ± standard error) / T/C (%) on day 29 after administration: day 29, (I-1) 100 mg/kg p.o. qd x 28 d
From the text: A total of 71 immunodeficient mice were subcutaneously injected with 10×10^6 OVCAR3 cells to establish a xenograft tumor model. Tumor-bearing mice with uniform tumors were randomly grouped into different treatment groups based on tumor volume, with 7 mice in each group.
Tumor cells: OVCAR3; 10×10^6 cells+Matrigel gel/mouse. A total of 71 mice were inoculated. 28 tumor-bearing mice with relatively uniform tumors were selected and randomly divided into 4 experimental groups, with 7 mice per group.
(§1) Under sterile conditions, a xenograft tumor model was established by subcutaneous injection of tumor cells into the right dorsal side of immunodeficient mice. When the tumor reached an appropriate size (100 mm^3 to 200 mm^3), the animals were randomly grouped by randomized block method based on the tumor volume of the animals, the tumor volume difference of each group should be less than 20% of the mean value, with 6 to 7 animals in each group, and administration was started on the day of grouping (i.e., d1). The body weight and tumor size of the animals were measured twice a week during the experiment. The clinical symptoms were observed and recorded daily. At the end of administration or at the end of the experiment.
(§2) The tumor volume (TV) was calculated as follows: TV=a×b^2/2, where a and b represent the measured length and width of the tumor, respectively.
(§3) The relative tumor volume (RTV) was calculated as follows: RTV=Vt/V1, where V1 represents the tumor volume at the time of grouping and administration (day 1), and Vt represents the tumor volume at the time of measurement.
(§4) The synergy score was calculated using the following formula (Clarke R, 1997):
(§5) [formula] • where A represents response to drug A; B represents response to drug B; C represents response to vehicle control; AB represents response to combination treatment with A and B.
(§6) The antitumor growth curves of the test substances were plotted by taking the X-axis as the treatment time (day) and the corresponding tumor volume (mean value) as the Y-axis. […] All data were statistically analyzed using SPSS (Statistical Product and Service Solutions) software (version 18.0, IBM, Armonk, NY, U.S.). Graphing was performed using Prism version 6 (GraphPad Software Inc., San Diego, CA).
(§7) For combination treatment, a synergy score of <1 indicated antagonistic effect, a synergy score of =1 indicated additive effect, and a synergy score of >1 indicated synergistic effect.

[2] = tested on: human ovarian cancer OVCAR3 cell xenograft tumor; conditions: PLD 3 mg/kg i.v. qw x 3 w; for tumor growth inhibition (in words): (I-1) 100 mg/kg p.o. qd x 21 d
From the text: A total of 56 immunodeficient mice were subcutaneously injected with 10×10^6 OVCAR3 cells to establish a xenograft tumor model. Tumor-bearing mice with uniform tumors were randomly grouped into different treatment groups based on tumor volume, with 6 mice in each group.
Tumor cells: OVCAR3; 10×10^6 cells+Matrigel gel/mouse. A total of 56 mice were inoculated. 24 tumor-bearing mice with relatively uniform tumors were selected and randomly divided into 4 experimental groups, with 6 mice in each group.
as §1, §2, §3, §4, §5, §6, §7

[3] = tested on: mouse ovarian cancer ID8 cells; assay: Murine ovarian cancer ID8 cell intraperitoneal model, combination with PLD; format: in vivo, mouse (C57BL/6)
Description: A total of 90 C57BL/6 mice were intraperitoneally injected with 15×10^6 ID8 cells to establish an ovarian cancer intraperitoneal model.
The body weight and tumor volume of the animals were measured twice or thrice a week during the experiment. The clinical symptoms were observed and recorded daily. After the administration was completed, the abdominal girth, body weight, and survival time of the mice were continuously observed until all the animals were subjected to euthanasia.
The tumor volume (TV) was measured using an IVIS imaging system, and the total luminescence value (Total flux) of each mouse was calculated under the same measurement area.
The animals were euthanized according to animal welfare principles when the body weight loss of the animals exceeded 20%, disease progression or moribund state was observed, the tumor burden exceeded 10% of the animal's body weight, the abdominal girth exceeded 100 mm, or the body weight exceeded 30 g.
Graphing was performed using Prism version 9 (GraphPad Software Inc., San Diego, CA), and the survival time and ascites production time were analyzed using the log-rank test.

[4] = day 22, (I-1) 100 mg/kg p.o. qd x 21 d

| Compound | tumor growth inhibition (in words) [1] | RTV on day 29 after administration (mean value ± standard error) [1] | T/C (%) on day 29 after administration [1] | tumor growth inhibition (in words) [2] | RTV on day 22 after administration (mean value ± standard error) [2, 4] | T/C (%) on day 22 after administration [2, 4] | survival time of the mice (in words) ([3]; compared with the solvent control group (combination also vs. monotherapy groups)) | T/C on day 22 ([3]; day 22, (I-1) 100 mg/kg p.o. qd x 21 d, PLD 3 mg/kg i.v. qw x 3 w) | T/C (%) on day 36 after administration ([3]; day 36, (I-1) 100 mg/kg p.o. qd x 21 d, PLD 3 mg/kg i.v. qw x 3 w) | RTV on day 36 after administration (mean value ± standard error) ([3]; day 36, in vivo imaging (Total flux), (I-1) 100 mg/kg p.o. qd x 21 d, PLD 3 mg/kg i.v. qw x 3 w) |
| --- | --- | --- | --- | --- | --- | --- | --- | --- | --- | --- |
| COc1cccc2c1C(=O)c1c(O)c3c(c(O)c1C2=O)C[C@@](O)(C(=O)CO)C[C@@H]3O[C@H]1C[C@H](N)[C@H](O)[C@H](C)O1 [Doxorubicin hydrochloride, reference compound] | moderate tumor growth inhibition | 8.88 ± 1.19 | 70.50% | moderate tumor growth inhibition |  |  |  |  |  |  |
| Cc1cc(Nc2ncc(Cl)c(Nc3ccccc3S(=O)(=O)C(C)C)n2)c(OC(C)C)cc1C1=CCN(C2CCOCC2)CC1 [Compound represented by formula (I-1)] | moderate tumor growth inhibition | 7.95 ± 1.31 | 63.15% | moderate tumor growth inhibition | 7.42 ± 1.06 | 72.77% | prolonged | 37.49% | 97.13% | 4.72 ± 1.35 |

Reference: patent US20260240843A1, “PHARMACEUTICAL COMPOSITION AND USE THEREOF” (priority 2023, published 2026)
